Measurements reported in PMC10539501 (Nature Communications, 2023).
Blank lines part the entries; values can stand above or below the molecule they belong to. Starred links: 1 amine or outer side, 2 acyl side, 3 side chain; linkers in the order of their positions; H or OH if unused. Non-standard residues stand in square brackets, D forms with d. Residues, ends and D or L forms follow the SMILES beside them. X2 = CC(C)C[C@H](NC(=S)[C@@H](CC(C)C)N[*:1])C(=O)[*:2]; X3 = CC(C)C[C@H](N[*:1])C(=S)N[C@H](CC(C)C)C(=O)[*:2]; X4 = CC(C)C[C@H](N[*:1])C(=S)N1CCC[C@@H]1C(=O)[*:2]; X16 = CC(C)C[C@H](N[*:1])C(=S)N[C@H](C)C(=O)[*:2]; NMeL = CN[C@@H](CC(C)C)C(=O)O

Legend:
[1] = assay type: physicochemical
[2] = Retention in hydrophobic C18 column by HPLC; conditions: Supplementary Fig 3d, logD7.4 vs tR
physchem = conditions: pH 7.4
[3] = PAMPA passive permeability; assay type: in vitro ADME;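 note: passive permeability across an artificial membrane in 96-well pre-coated PAMPA plates, which lack transporters and efflux systems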
Protocol: Encouraged by this, the passive permeability of the analogs was evaluated using an artificial membrane (PAMPA), which measures permeability of compounds in the absence of transporters and efflux systems[32].
96-well BD Corning® pre-coated PAMPA plates were used following the supplier’s protocol, details in Supplementary Information.

pepsin = pepsin (Sus scrofa, UniProt P00791); assay: in vitro; conditions: simulated gastric fluid, pH 1.2
Protocol: (§1) A stability assessment of the peptides was done in simulated gastric (SGF) and intestinal (SIF) fluids and human liver microsomes. The degradation kinetics of the aliquoted samples at desired time points were analyzed through RP-HPLC.

[4] = HDX of amide protons by NMR in CDCl3:CD3OD (8:2)
Protocol: (§2) As hydrogen bonding and solvation of NH groups play an important role in the permeability of macrocycles, we determined the solvent accessibility of individual amide protons in 10 and 10a–10f by hydrogen-deuterium exchange (HDX) through NMR spectroscopy (Figs. 2a–c).
(§3) Spectra were recorded on a Bruker AV 500 MHz spectrometer at 25 °C.

[5] = HDX of amide protons by NMR in DMSO-d6:D2O (8:2); conditions: HDX by NMR, 20% D2O in DMSO-d6
Protocol: as §2, §3

Caco-2 cells = assay: in vitro; assay type: in vitro ADME, human; conditions: Caco-2
Protocol: (§4) The Caco-2 cell (HTB-37^TM from ATCC, procured from NCCS, Pune) monolayer was washed and pre-incubated at 37 °C and 5% CO2 for 30 min with HBSS-HEPES buffer containing 1% DMSO prior to experimentation. The assay was performed 21 days post-seeding of cells. TEER values were measured before starting and after the completion of the assay. Acceptor and donor well concentrations of the peptides and controls were assessed through LC-MS/MS.

in vitro [6] = assay type: in vitro ADME, human
Protocol: as §4

in vitro [7] = conditions: both, human, plasma
in vitro [8] = conditions: human, microsomes
Protocol: as §1

in vitro [9] = conditions: pig, simulated intestinal fluid
Protocol: We next assessed the stability of the macrocyclic peptides in Simulated Intestinal Fluid (SIF)[42], comprising of pancreatin, which is a mixture of several proteases produced by the exocrine cells of the porcine pancreas.
as §1

[10] = rat, in vivo, po, 10 mg/kg
Protocol: (§5) All animals were housed individually in the animal facility at Anthem Biosciences Pvt. Ltd and were acclimatized for 3 days. All animals were fasted overnight before dosing, whereas access to water was provided ad libitum. Peptides were administered orally and via s.c. route and blood samples were collected at different time points through a jugular vein catheter.

[11] = assay type: physicochemical; remark: listed apart in the source
in vitro [12] = conditions: both, human, plasma; remark: listed apart in the source
in vivo = conditions: male, Wistar, rat
Protocol: as §5

[13] = 20% CD3OD in CDCl3, % remaining after 24 hours
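Throughout, for Papp A-B avg (second block): Caco-2 monolayers used 21 days after seeding in HBSS-HEPES buffer with 1% DMSO, donor and acceptor levels quantified by LC-MS/MS, TEER checked before and after.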
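Throughout, for Papp A-B set 1 (second block): Caco-2 monolayers used 21 days after seeding in HBSS-HEPES buffer with 1% DMSO, donor and acceptor levels quantified by LC-MS/MS, TEER checked before and after.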
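Throughout, for Papp A-B set 2 (second block): Caco-2 monolayers used 21 days after seeding in HBSS-HEPES buffer with 1% DMSO, donor and acceptor levels quantified by LC-MS/MS, TEER checked before and after.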
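Throughout, for Papp B-A avg (second block): Caco-2 monolayers used 21 days after seeding in HBSS-HEPES buffer with 1% DMSO, donor and acceptor levels quantified by LC-MS/MS, TEER checked before and after.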

pepsin, sequence (P00791 60-385): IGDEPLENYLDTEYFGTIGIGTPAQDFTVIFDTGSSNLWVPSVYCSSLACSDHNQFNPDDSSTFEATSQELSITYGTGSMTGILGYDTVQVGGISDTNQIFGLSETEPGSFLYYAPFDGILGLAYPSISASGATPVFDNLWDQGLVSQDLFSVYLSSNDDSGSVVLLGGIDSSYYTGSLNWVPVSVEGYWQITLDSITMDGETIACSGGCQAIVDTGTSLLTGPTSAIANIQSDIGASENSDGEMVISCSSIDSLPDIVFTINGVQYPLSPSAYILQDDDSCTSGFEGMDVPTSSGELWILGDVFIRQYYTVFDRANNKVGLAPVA
Protocol for human liver microsomes: as §1

SMILES: CC(C)C[C@@H]1NC(=O)[C@H](Cc2ccc(O)cc2)NC(=O)[C@H]2CCCN2C(=O)[C@H](CC(C)C)NC(=O)[C@H](CC(C)C)NC(=S)[C@@H](CC(C)C)NC1=O [10a] (cyclo(L[dP]YL[X2]))
half-life (pepsin): 0.7 h
remaining at 5 min (pepsin): 83%
remaining at 10 min (pepsin): 74%
remaining at 20 min (pepsin): 63%
remaining at 0.5 h (pepsin): 56%
remaining at 1 h (pepsin): 42%
remaining at 2 h (pepsin): 34%
remaining at 4 h (pepsin): 31%
remaining at 8 h (pepsin): 19%
remaining at 12 h (pepsin): 11%
remaining at 24 h (pepsin): 7%
Half-life of D-Leu1 amide proton (HDX) ([4]; 20% CD3OD in CDCl3): 19.25 h
Half-life of Leu2 amide proton (HDX) ([4]; 20% CD3OD in CDCl3): 0.333 h
Half-life of Leu3 amide proton (HDX) ([4]; 20% CD3OD in CDCl3): > 24 h
Half-life of Leu6 amide proton (HDX) ([4]; 20% CD3OD in CDCl3): > 24 h
Half-life of Tyr5 amide proton (HDX) ([4]; 20% CD3OD in CDCl3): > 24 h
% intact NH, Leu3 [4, 13]: 80%
% intact NH, Leu6 [4, 13]: 89%
% intact NH, Tyr5 [4, 13]: 80%
Half-life of D-Leu1 amide proton (HDX) [5]: 2.83 h
Half-life of Leu2 amide proton (HDX) [5]: 1.83 h
Half-life of Leu3 amide proton (HDX) [5]: 12 h
Half-life of Leu6 amide proton (HDX) [5]: 13.3 h
Half-life of Tyr5 amide proton (HDX) [5]: 0.838 h
Papp A-B avg (second block) (Caco-2 cells): 3.25 ×10⁻⁶ cm/s
Papp A-B set 1 (second block) (Caco-2 cells): 3.14 ×10⁻⁶ cm/s
Papp A-B set 2 (second block) (Caco-2 cells): 3.36 ×10⁻⁶ cm/s
Papp B-A avg (second block) (Caco-2 cells): 75.4 ×10⁻⁶ cm/s
Papp B-A set 1 (second block) (Caco-2 cells): 77.4 ×10⁻⁶ cm/s
Papp B-A set 2 (second block) (Caco-2 cells): 73.3 ×10⁻⁶ cm/s
Papp A→B (in vitro [6]; Caco-2, Papp A-B + Elacridar avg): 13 ×10⁻⁶ cm/s
Papp A→B (in vitro [6]; Caco-2, Papp A-B avg): 3.25 ×10⁻⁶ cm/s
Papp B→A (in vitro [6]; Caco-2, Papp B-A + Elacridar avg): 16.9 ×10⁻⁶ cm/s
Papp B→A (in vitro [6]; Caco-2, Papp B-A avg): 75.4 ×10⁻⁶ cm/s
half-life (in vitro [7]): 22 h
remaining at 1 h (in vitro [7]): 94%
remaining at 3 h (in vitro [7]): 84%
remaining at 5 h (in vitro [7]): 78%
remaining at 7 h (in vitro [7]): 72%
remaining at 9 h (in vitro [7]): 66%
remaining at 12 h (in vitro [7]): 56%
remaining at 24 h (in vitro [7]): 45%
remaining at 36 h (in vitro [7]): 33%
remaining at 48 h (in vitro [7]): 23%
remaining at 60 h (in vitro [7]): 22%
remaining at 72 h (in vitro [7]): 21%
% solubility [1]: 58%
microsomal CLint (in vitro [8]): 29.5 µL/min/mg
remaining at 5 min (in vitro [8]): 75%
remaining at 10 min (in vitro [8]): 65%
remaining at 20 min (in vitro [8]): 64%
remaining at 0.5 h (in vitro [8]): 58%
remaining at 0.75 h (in vitro [8]): 52%
remaining at 1 h (in vitro [8]): 44%
tR [2]: 10.8 min
logD (physchem): 1.21
Half lives (human liver microsomes): 46.9
half-life (in vitro [9]): 2.45 h
remaining at 10 min (in vitro [9]): 78.4%
remaining at 0.5 h (in vitro [9]): 66%
remaining at 1 h (in vitro [9]): 55.9%
remaining at 2 h (in vitro [9]): 49.2%
remaining at 4 h (in vitro [9]): 34%
remaining at 8 h (in vitro [9]): 26.3%
remaining at 12 h (in vitro [9]): 18.8%
remaining at 24 h (in vitro [9]): 11%
AUClast p.o [10]: 26.9 ng·h/mL
time over which the peptide is detectable in plasma [10]: ≥ 8 h
Pe set1 [3]: 8.08 ×10⁻⁶ cm/s
Pe set2 [3]: 12.5 ×10⁻⁶ cm/s
Pe set3 [3]: 11.81 ×10⁻⁶ cm/s
Papp ([3]; Pe Avg): 10.8 ×10⁻⁶ cm/s
logD heptane ethylene glycol [11]: 0.97
fraction unbound (in vitro [12]): 0.28
AUC(0-t) (in vivo; iv): 146 ng·h/mL
Cmax (in vivo; iv): 48.1 ng/mL
MRT (in vivo; iv): 2.8 h
Vd (in vivo; iv): 28.6 L/kg
clearance (in vivo; iv): 91.1 mL/min/kg
bioavailability (in vivo; po): 1.8%
AUC(0-t) (in vivo; po, 10 mg/kg): 26.9 ng·h/mL
Cmax (in vivo; po, 10 mg/kg): 15 ng/mL
MRT (in vivo; po, 10 mg/kg): 2 h
level at 3 h (in vivo; po, 10 mg/kg): 3 ng/mL

SMILES: CC[C@H](C)[C@@H]1NC(=O)[C@@H]2CCCN2C(=O)[C@H]([C@@H](C)CC)NC(=O)[C@@H]2CCCN2C(=O)[C@H](Cc2ccccc2)NC(=O)[C@H](C)NC(=O)[C@H](C)NC1=O [compound 11, cyclo(-Ile^1-Ala-Ala-Phe-Pro-Ile-Pro^7-)] (cyclo(AAFPIPI))
% solubility [1]: 95%
tR [2]: 5.299 min
logD (physchem): 0.1
Papp ([3]; Pe (PAMPA vs logD7.4)): 0.41 ×10⁻⁶ cm/s
Papp ([3]; Pe Avg): 0.4 ×10⁻⁶ cm/s

SMILES: CC(C)C[C@@H]1NC(=O)[C@@H](CC(C)C)NC(=O)[C@H](CC(C)C)N(C)C(=O)[C@H](Cc2ccc(O)cc2)NC(=O)[C@H]2CCCN2C(=O)[C@H](CC(C)C)NC1=O [10k] (cyclo(LL[dP]Y[NMeL][dL]))
half-life (pepsin): 1.75 h
remaining at 2 min (pepsin): 97%
remaining at 10 min (pepsin): 84%
remaining at 20 min (pepsin): 77%
remaining at 0.5 h (pepsin): 71%
remaining at 1 h (pepsin): 65%
remaining at 2 h (pepsin): 46%
remaining at 4 h (pepsin): 19%
remaining at 8 h (pepsin): 11%
remaining at 12 h (pepsin): 7%
half-life (in vitro [7]): 12 h
remaining at 2 h (in vitro [7]): 82%
remaining at 4 h (in vitro [7]): 69%
remaining at 8 h (in vitro [7]): 57%
remaining at 16 h (in vitro [7]): 39%
remaining at 24 h (in vitro [7]): 28%
remaining at 48 h (in vitro [7]): 8%
remaining at 72 h (in vitro [7]): 2.65%
microsomal CLint (in vitro [8]): 144 µL/min/mg
remaining at 2 min (in vitro [8]): 67%
remaining at 10 min (in vitro [8]): 50%
remaining at 20 min (in vitro [8]): 28%
remaining at 0.5 h (in vitro [8]): 16%
remaining at 0.75 h (in vitro [8]): 4.69%
remaining at 1 h (in vitro [8]): 5.45%
logD (physchem): 1.2
Half lives (human liver microsomes): 10.3
half-life (in vitro [9]): 1.55 h
remaining at 10 min (in vitro [9]): 88%
remaining at 0.5 h (in vitro [9]): 75%
remaining at 1 h (in vitro [9]): 62%
remaining at 2 h (in vitro [9]): 39%
remaining at 4 h (in vitro [9]): 30%
remaining at 8 h (in vitro [9]): 6%
remaining at 12 h (in vitro [9]): 3%
Fold Change of AUClast p.o [10]: 393
Papp ([3]; Pe Avg): 6.13 ×10⁻⁶ cm/s
fraction unbound (in vitro [12]): 0.53
AUC(0-t) (in vivo; iv): 510 ng·h/mL
Cmax (in vivo; iv): 1170 ng/mL
MRT (in vivo; iv): 0.4 h
Vd (in vivo; iv): 0.8 L/kg
clearance (in vivo; iv): 33.3 mL/min/kg
bioavailability (in vivo; po): 6.8%
AUC(0-t) (in vivo; po, 10 mg/kg): 345 ng·h/mL
Cmax (in vivo; po, 10 mg/kg): 55.9 ng/mL
MRT (in vivo; po, 10 mg/kg): 9 h
level at 3 h (in vivo; po, 10 mg/kg): 26.6 ng/mL

SMILES: CC(C)C[C@@H]1NC(=O)[C@@H](CC(C)C)NC(=O)[C@H]2CCCN2C(=O)[C@H](CC(C)C)NC(=O)[C@@H](CC(C)C)NC(=O)[C@H](CC(C)C)NC(=O)[C@@H]2CCCN2C(=O)[C@@H](C)NC1=O [compound 12, cyclo(-D-Leu^1-Leu-D-Pro-D-Leu-Leu-D-Ala-Pro-Leu^8-)] (cyclo(L[dA]PL[dL]L[dP][dL]))
% solubility [1]: 94%
tR [2]: 12.6 min
logD (physchem): 0.75
Papp ([3]; Pe Avg): 3 ×10⁻⁶ cm/s

Further lines, results first:

% solubility [1]: 40%
tR [2]: 16.4 min
logD (physchem): 1.49
Papp ([3]; Pe Avg): 7.7 ×10⁻⁶ cm/s
SMILES: CC(C)C[C@@H]1NC(=O)[C@@H](CC(C)C)NC(=O)[C@H]2CCCN2C(=O)[C@H](CC(C)C)NC(=O)[C@@H](CC(C)C)NC(=S)[C@H](CC(C)C)NC(=O)[C@@H]2CCCN2C(=O)[C@@H](C)NC1=O [12h] (cyclo([X3]L[dP][dL]L[dA]P))

% solubility [1]: 49%
tR [2]: 15.5 min
logD (physchem): 1.61
Papp ([3]; Pe Avg): 2.6 ×10⁻⁶ cm/s
SMILES: CC(C)C[C@@H]1NC(=O)[C@@H](CC(C)C)NC(=O)[C@H]2CCCN2C(=S)[C@H](CC(C)C)NC(=O)[C@@H](CC(C)C)NC(=O)[C@H](CC(C)C)NC(=O)[C@@H]2CCCN2C(=O)[C@@H](C)NC1=O [12b] (cyclo(L[dL][X4][dL]L[dA]P))

% solubility [1]: 41%
tR [2]: 15 min
logD (physchem): 1.37
Papp ([3]; Pe Avg): 5.7 ×10⁻⁶ cm/s
SMILES: CC(C)C[C@@H]1NC(=O)[C@@H]2CCCN2C(=O)[C@@H](C)NC(=S)[C@H](CC(C)C)NC(=O)[C@@H](CC(C)C)NC(=O)[C@H]2CCCN2C(=O)[C@H](CC(C)C)NC(=O)[C@@H](CC(C)C)NC1=O [12e] (cyclo([dL]L[dP][dL][X16]PL))
